What was measured:
[1] = molecular target: T1, GTPase KRas (Homo sapiens, UniProt P01116, G12C); test: Inhibition of KRAS G12C mutant in human MIA PaCa-2 cells assessed as reduction in phosphorylated ERK level incubation for 2 to 4 hrs by HTRF assay; assay type: cell-based
[2] = molecular target: T1, GTPase KRas; test: Inhibition of BODIPY loaded KRAS G12C mutant (unknown origin) assessed as inhibition of GDP-GTP exchange rate preincubated for 2 hrs and measured after 2 hrs in presence of SOS1-GppNHp mixture by BODIPY fluorescence based PHERAstar plate reader analysis

T1 sequence (P01116 whole entry G12C): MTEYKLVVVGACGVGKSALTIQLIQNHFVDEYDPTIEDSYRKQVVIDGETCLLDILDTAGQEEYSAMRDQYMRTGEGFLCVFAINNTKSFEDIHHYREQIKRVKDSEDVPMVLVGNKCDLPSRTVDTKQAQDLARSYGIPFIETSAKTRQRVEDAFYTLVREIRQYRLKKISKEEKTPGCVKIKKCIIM

SMILES | IC50 [1] | IC50 [2]
C=CC(=O)N1CC(F)(Cn2c(=O)c(=O)n(-c3c(C)ccnc3C(C)C)c3nc(-c4ccccc4F)c(Cl)cc32)C1 | ≤ 100 nM | ≤ 100 nM
C=CC(=O)N1CC(F)(Cn2c(=O)c(=O)n(-c3c(C)ccnc3C(C)C)c3nc(-c4c(Cl)ccc5c4OCO5)c(Cl)cc32)C1 | ≤ 100 nM | ≤ 100 nM
C=CC(=O)N1CC(F)(Cn2c(=O)c(=O)n(-c3c(C)ccnc3C(C)C)c3nc(-c4c(F)ccc(F)c4O)c(Cl)cc32)C1 | ≤ 100 nM | ≤ 100 nM
C=CC(=O)N1CC(F)(Cn2c(=O)c(=O)n(-c3c(C(C)C)cccc3C(C)C)c3nc(-c4cc(O)cc5ccccc45)c(Cl)cc32)C1 | ≤ 100 nM | ≤ 100 nM
C=CC(=O)N1CC(F)(Cn2c(=O)c(=O)n(-c3c(C)ccnc3C(C)C)c3nc(-c4cccc(Cl)c4Cl)c(Cl)cc32)C1 | ≤ 100 nM | ≤ 100 nM
C=CC(=O)N1CC(F)(Cn2c(=O)c(=O)n(-c3c(C)ccnc3C(C)C)c3nc(-c4c(N)cccc4F)c(Cl)cc32)C1 | ≤ 100 nM | ≤ 100 nM
